One data set deals with MDA-MB-231 cells. Put plainly: MTT cell viability assay, MDA-MB-231. The format is cell-based. The note with it: Homo sapiens, MDA-MB-231, 48 h, read-out: Cell growth % at 10 µM, MDA-MB-231. In outline: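 Cells grown in RPMI 1640 with 10% FBS at 37 °C, 5% CO2 were seeded at 10^4/well and exposed 48 h to compound (0.5–100 µM dose range). Values are % viability at 10 µM, with IC50 ratios non-tumorigenic/tumor as selectivity index.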
In general terms: Formazan colour is commonly taken as a measure of viable cells.

In a further data set the test system is HT-29 cells. Nature of the data set: MTT cell viability assay, HT-29. The format is cell-based. As to conditions: Homo sapiens; for viability at 10 µM: HT-29, 10 µM, 48 h, read-out: Cell growth % at 10 µM, HT-29; for IC50: HT-29, 48 h.
The test system of a further data set is 184B5 cells. Nature of the data set: MTT cell viability assay, 184B5 (non-tumorigenic). The format is cell-based. As to conditions: Homo sapiens, 48 h, nonmalignant mammary gland. How it is done: (§1) The cell lines were obtained from the American Type Culture Collection (ATCC). Five tumor cell lines (MDA-MB-231, MCF-7, HCT116, HTB-54, and DU-145) and two non-tumorigenic cells (184B5 and BEAS-2B) were grown in RPMI 1640 medium (Gibco), and the HT-29 tumor cell line was grown in McCoy’s medium. Both mediums were supplemented with 10% fetal bovine serum (FBS; Gibco) and 1% antibiotics (10.00 units/mL penicillin and 10.00 μg/mL streptomycin; Gibco). Cells were preserved in tissue culture flasks at 37 °C and 5% CO2. The culture medium was replaced every three days.
(§2) The effect of each compound on cell viability was tested using the MTT assay. […] Selected compounds were then tested at seven different concentrations (0.5–100 μM) in MCF-7, HCT116, HT-29, HTB-54, 184B5 and BEAS-2B cells. Cells were seeded at 10^4 per well onto flat-bottomed 96-well culture plates. They were treated with either DMSO or increasing concentration of the corresponding compound for 48 h. Then, they were incubated with 20 μL of 3-(4,5-dimethylthiazol-2-yl)-2,5-diphenyltetrazolium bromide (MTT) (2 mg /mL stock; Aldrich) for 2,5 h and analyzed for their ability to generate a purple formazan dye. These formazan crystals were dissolved in 50 μL of DMSO. The absorbance was measured at a wavelength of 550 nm and the ratio of viable cells was calculated.
Results are expressed as cell viability % at 10 μM. Selectivity index were calculated as the ratio of the IC50 values determined for the non-malignant and the tumor cells in breast (IC50 (184B5)/IC50 (MCF-7)) and lung (IC50 (BEAS-2B)/IC50 (HTB-54)) cell lines. Data were obtained from at least three independent experiments performed in triplicates.

Data set [1] deals with HTB-54, DU-145, HT-29 and MDA-MB-231 cancer cell lines. Put plainly: cells. The class given is cell-based. The note with it: against the panel of the four cancer cell lines. The method, then:
as §1, §2
As a first approach, all the compounds were tested in vitro against lung (HTB-54), prostatic (DU-145), colon (HT-29), and triple-negative breast (MDA-MB-231) cancer cell lines at two concentrations (50 and 10 µM) for 48 h. Then, the MTT colorimetric assay was used to evaluate cell proliferation after the treatment. The data are expressed as the percentage of cell growth ± SD in at least three independent experiments performed in quadruplicates (Table S1).

For data set [2], the system named is HTB-54, HT-29, HCT116 and MCF-7 cancer cell lines. Put plainly: MTT IC50, all tested cancer cell lines. The format is cell-based. The note with it: 48 h. The method, then: as §1
as §2, with “calculated. […]” for “calculated.”

The test system of data set [3] is NCI-H322M (non-small cell lung). Put plainly: NCI-60 Five-Dose assay, NCI-H322M. The format is cell-based. As to conditions: Homo sapiens, 48 h. The method, then: (§3) Compounds 14a and 17a were submitted to the Developmental Therapeutics Program (DTP) of National Cancer Institute (NCI). Cytotoxicity activity was evaluated by performing One-Dose screening (10^−5 M) against a panel of 60 human tumor cell lines. […] Cells grew in the RPMI 1640 medium containing 5% fetal bovine serum and 2 mM L-glutamine and were inoculated into 96-well microtiter plates in 100 μL at plating densities ranging from 5.000 to 40.000 cells/well. The microtiter plates inoculated with cells were incubated at 37 °C, in 5% humidified CO2 for 24 h prior to addition of experimental drugs. Then, experimental drugs were added, and the microtiter plates were incubated for 48 h. The protocol is available on https://dtp.cancer.gov/discovery_development/nci-60/methodology.htm accessed on 31 December 2022.

The test system of a further data set is OVCAR-3 (ovarian). Put plainly: NCI-60 Five-Dose assay, OVCAR-3. The class given is cell-based. As to conditions: Homo sapiens, 48 h. The method, then: as §3
Another data set can be described thus: in vitro. The method, then: Franz diffusion cells (Microette 8910130, Hanson Research) were employed to perform this assay. The compounds were dissolved in DMSO at 5 mg/mL and diluted to 500 µg/mL with phosphate-buffered saline (PBS)/EtOH (7:3) to make a stock solution. A total of 10 µL of porcine brain lipid (PBL) diluted in dodecane solution (20 mg/mL) was spread onto a PVDF membrane that was placed between the donor and acceptor compartments, forming a sandwich structure. Then, 4.5 mL of PBS/EtOH (7:3) was added to the acceptor compartment and 700 µL of the stock solution was added to the donor cell. […] The concentration of the compound was calculated from the standard curve and expressed as permeability (Pe) by the following formula [84]:Permeability (cm/s): Pe = {−ln [1 − CA(t)/Ceq]}/[A ∗ (1/VD + 1/VA) ∗ t]
A = filter area ([…]), VD = donor cell volume (0.7 mL), VA = acceptor cell volume (4.5 mL), t = incubation time, CA (t) = compound concentration in acceptor cell at time t, CD (t) = compound concentration in donor cell at time t, and Ceq = [CD(t) ∗ VD + […] ∗ VA]/(VD + VA).
Every sample was analyzed at least in duplicate and the data were reported as mean ± SD.

By IC50 is commonly meant the concentration that gives 50% inhibition. The term GI50 denotes the concentration that inhibits growth by half. Read a high GI50 as lower sensitivity of the cells. By Papp is commonly meant the rate of passage across a membrane or cell layer, normalised by area and donor concentration. A low value points to slow passage. Consider `C=CC[Se]C(=O)c1ccccc1OC(C)=O` [Compound 14a, 2-(allylselanylcarbonyl)phenylacetate], for which the viability at 10 µM with MDA-MB-231 cells was 38.8 ± 3.6%; in the data set on HT-29 cells, 53.9 ± 5.3%; in data set [1], < 55%. Moreover, the 50% inhibitory concentration (IC50) was 6.4 ± 1 µM in the data set with HT-29 cells, 10.2 ± 0.1 µM with 184B5 cells and < 10 µM in data set [2]. The GI50 in data set [3] amounted to 0.34 µM; in the data set with OVCAR-3 (ovarian), 1.9 µM. The same compound yielded a Papp at 20 h, 500 µg/mL in the data set “in vitro” (PAMPA) of 36.9 ± 0.1 ×10⁻⁶ cm/s. For the same compound, in the data set “in vitro” (PAMPA-BBB), the “fold higher Pe compared to galantamine” value is 3 fold. The “Pe ± SD” value in the data set “in vitro” (PAMPA-BBB, porcine brain lipid, 20 h, 25 °C) turned out to be 36.92 ×10⁻⁶ cm/s. In addition, the “BBB Permeation (Experimental)” value in the data set “in vitro” (class from PAMPA-BBB Pe) is “High (High BBB permeation predicted; Pe (10^−6 cm s^−1) > 4.0)”.

As for `C=CC[Se]C(=O)Cc1c(C)n(C(=O)c2ccc(Cl)cc2)c2ccc(OC)cc12` [Compound 17a, Se-allyl 2-[1-(4-chlorobenzoyl)-5-methoxy-2-methyl-1H-indol-3-yl]ethaneselenoate], the viability at 10 µM is 26.5 ± 5.6% in the data set on MDA-MB-231 cells, 38.7 ± 6% in the data set on HT-29 cells and < 55% in data set [1]. The half-inhibitory concentration (IC50) in the data set on HT-29 cells is 5.9 ± 0.8 µM; with 184B5 cells it was 13.3 ± 3.9 µM; in data set [2], < 10 µM. Besides, the GI50 in data set [3] is 0.42 µM; in the data set on OVCAR-3 (ovarian), 1.8 µM.

(Values after article PMC9854712 (Antioxidants, 2023).)
